Where only a bound is given, the exact number is not on record here.

This assay deals with T1, human GCGR (Homo sapiens, UniProt P47871).
T1 construct: expressed in transfected cells; host or cells: HEK293 (hGluc-1HEK), pcDNA3.1, G418 selection
T1 sequence (P47871 26-477): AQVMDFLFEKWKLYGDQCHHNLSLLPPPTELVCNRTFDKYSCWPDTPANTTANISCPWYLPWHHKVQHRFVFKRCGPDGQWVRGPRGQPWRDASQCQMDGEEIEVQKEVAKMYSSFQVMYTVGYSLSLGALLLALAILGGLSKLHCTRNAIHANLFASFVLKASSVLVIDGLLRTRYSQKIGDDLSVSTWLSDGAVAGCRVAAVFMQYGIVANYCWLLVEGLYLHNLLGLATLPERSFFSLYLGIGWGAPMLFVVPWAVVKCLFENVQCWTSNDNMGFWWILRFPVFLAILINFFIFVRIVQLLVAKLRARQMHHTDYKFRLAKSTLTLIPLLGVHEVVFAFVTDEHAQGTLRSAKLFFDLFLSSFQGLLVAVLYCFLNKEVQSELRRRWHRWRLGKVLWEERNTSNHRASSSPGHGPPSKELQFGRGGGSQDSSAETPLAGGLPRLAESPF
Nature of the assay: Cellular functional assay, cAMP readout (glucagon-stimulated cAMP, LANCE TR-FRET). It counts as cell-based. To be noted: HEK293 cells stably expressing full-length human GCGR; glucagon 100 pM; IC50 converted to Ki; read-out: Inhibition of cAMP Ki. On the procedure: IC50 Values in Cellular Functional Assays: cAMP Readout
Full-length human GCGR (Accession Number: NM000160) subcloned into pcDNA3.1 was stably transfected into HEK293 cells (hGluc-1HEK) and maintained under G418 selection (500 μg/mL). Cell cultures were maintained in DMEM/F12 media supplemented with 10% FBS and 1% GlutaMax™ Supplement (Available from ThermoFisher Scientific, catalog #35050061). Glucagon stimulated cAMP was quantified using LANCE technology as per manufacturer instructions. On the day of the experiment, spent media was removed and cells were washed with Hank's Buffered Saline solution (HBSS), and cells harvested with non-enzymatic cell dissociation solution, then washed once with HBSS. Cells were re-suspended in stimulation buffer at a concentration of 0.83×10^6 cells/ml and cAMP detection antibody was added. 6 μl/well of this solution was then dispensed in a 384 well plate (cell density 5000 cells/well). Test compound was serially diluted in DMSO and 50 nl were dispensed on top of the cell solution and allowed to incubate for 30 minutes. 6 μl of a 2× glucagon solution (final concentration in assay 100 pM) was then added and the reaction was terminated after 5 minutes with the addition of detection mix. The resulting mixture was incubated, protected from light for 1.5 h. cAMP levels were quantified by TR-FRET in an EnVision instrument against a known standard. IC50's were generated by using a non-linear regression macro driven in Excel and converted to Ki values.
As to `O=C(O)CCNC(=O)c1ccc(C(CCC(F)(F)F)n2ncc3cc(-c4ccc(C(F)(F)F)c(Cl)c4)ccc32)cc1` (stereo not shown) [Compound #111, 3-[[4-[1-[5-[3-Chloro-4-(trifluoromethyl)phenyl]indazol-1-yl]-4,4,4-trifluorobutyl]benzoyl]amino]propanoic acid], the Ki is above 1300 nM.
The same measure for `O=C(O)CCNC(=O)c1ccc(C(CCC(F)(F)F)n2ncc3cc(-c4ccc(Cl)cc4Cl)ccc32)cc1` (stereo not shown) [Compound #112, 3-[[4-[1-[5-(2,4-Dichlorophenyl)indazol-1-yl]-4,4,4-trifluorobutyl]benzoyl]amino]propanoic acid]: 410 nM; for `CC(C)CC(c1ccc(C(=O)NCCC(=O)O)nc1)n1ncc2cc(-c3ccc(Cl)cc3Cl)ccc21` (stereo not shown) [Compound #113, 3-(5-(1-(5-(2,4-Dichlorophenyl)-1H-indazol-1-yl)-3-methylbutyl)picolinamido)propanoic acid]: 420 nM; for `CC(C)CC(c1ccc(C(=O)NCCC(=O)O)nc1)n1ncc2cc(-c3ccc(OC(F)(F)F)cc3)ccc21` (stereo not shown) [Compound #114, 3-(5-(3-Methyl-1-(5-(4-(trifluoromethoxy)phenyl)-1H-indazol-1-yl)butyl)picolinamido)propanoic acid]: 650 nM.
Take `O=C(O)CCNC(=O)c1ccc(C(CCC(F)(F)F)n2ncc3cc(-c4cc5ccccc5s4)ccc32)cc1` (stereo not shown) [Compound #115, 3-[[4-[1-[5-(Benzothiophen-2-yl)indazol-1-yl]-4,4,4-trifluorobutyl]benzoyl]amino]propanoic acid]: the Ki amounted to 140 nM.
With `O=C(O)CCNC(=O)c1ccc(C(CCC(F)(F)F)n2cc3cc(-c4cc5ccccc5s4)ccc3n2)cc1` (stereo not shown) [Compound #122, 3-[[4-[1-[5-(Benzothiophen-2-yl)indazol-2-yl]-4,4,4-trifluorobutyl]benzoyl]amino]propanoic acid], the Ki worked out at 125 nM.
The same measure for `Cc1c(-c2ccc(Cl)cc2Cl)ccc2c1cnn2C(CC(C)C)c1ccc(C(=O)NCCC(=O)O)cc1` (stereo not shown) [Compound #127, 3-(4-(1-(5-(2,4-Dichlorophenyl)-4-methyl-1H-indazol-1-yl)-3-methylbutyl)benzamido)propanoic acid]: 310 nM.
Take `Cc1cc2nn(C(CC(C)C)c3ccc(C(=O)NCCC(=O)O)cc3)cc2cc1-c1ccc(C(F)(F)F)cc1` (stereo not shown) [Compound #134, 3-[[4-[3-Methyl-1-[6-methyl-5-[4-(trifluoromethyl)phenyl]indazol-2-yl]butyl]benzoyl]amino]propanoic acid]: the Ki turned out to be 195 nM.
As to `Cc1cc(C(F)(F)F)ccc1-c1ccc2c(cnn2C(CC(C)C)c2ccc(C(=O)NCCC(=O)O)cc2)c1Cl` (stereo not shown) [Compound #135, 3-(4-(1-(4-Chloro-5-(2-methyl-4-(trifluoromethyl)phenyl)-1H-indazol-1-yl)-3-methylbutyl)benzamido)propanoic acid], the Ki was 100 nM.
The same measure for `COc1c(-c2ccc(C(F)(F)F)cc2Cl)ccc2nn(C(CC(C)C)c3ccc(C(=O)NCCC(=O)O)cc3)cc12` (stereo not shown) [Compound #137, 3-(4-(1-(5-(2-Chloro-4-(trifluoromethyl)phenyl)-4-methoxy-2H-indazol-2-yl)-3-methylbutyl)benzamido)propanoic acid]: 22 nM.
In the case of `Cc1cc(Cl)ccc1-c1cc2cn(C(CC(C)C)c3ccc(C(=O)NCCC(=O)O)nc3)nc2cc1Cl` (stereo not shown) [Compound #140, 3-[[5-[1-[6-Chloro-5-(4-chloro-2-methyl-phenyl)indazol-2-yl]-3-methyl-butyl]pyridine-2-carbonyl]amino]propanoic acid], the Ki is 125 nM.
Turning to `CC(C)CC(c1ccc(C(=O)NCCC(=O)O)cc1)n1ncc2c(Cl)c(-c3ccc(C(F)(F)F)cc3Cl)ccc21` (stereo not shown) [Compound #141, 3-(4-(1-(4-Chloro-5-(2-chloro-4-(trifluoromethyl)phenyl)-1H-indazol-1-yl)-3-methylbutyl)benzamido)propanoic acid], the Ki came to 115 nM.
Take `Cc1ccc(-c2ccc3nn(C(CC(C)C)c4ccc(C(=O)NCCC(=O)O)cc4)cc3c2C)c(C)c1` (stereo not shown) [Compound #143, 3-(4-(1-(5-(2,4-Dimethylphenyl)-4-methyl-2H-indazol-2-yl)-3-methylbutyl)benzamido)propanoic acid]: the Ki came out at 24 nM.
Then `Cc1cc(C(F)(F)F)ccc1-c1cc2cnn(C(CC(C)C)c3ccc(C(=O)NCCC(=O)O)nc3)c2cc1Cl` (stereo not shown) [Compound #146, 3-[[5-[1-[6-Chloro-5-[2-methyl-4-(trifluoromethyl)phenyl]indazol-1-yl]-3-methyl-butyl]pridine-2-carbonyl]amino]propanoic acid], with 160 nM; and `CC(C)CC(c1ccc(C(=O)NCCC(=O)O)cc1)n1cc2c(Cl)c(-c3ccc(C(F)(F)F)cc3)ccc2n1` (stereo not shown) [Compound #147, 3-(4-(1-(4-Chloro-5-(4-(trifluoromethyl)phenyl)-2H-indazol-2-yl)-3-methylbutyl)benzamido)prop-anoic acid], with 40 nM; and `Cc1ccc(-c2ccc3nn(C(CC(C)C)c4ccc(C(=O)NCCC(=O)O)cc4)cc3c2C)c(Cl)c1` (stereo not shown) [Compound #148, 3-(4-(1-(5-(2-Chloro-4-methylphenyl)-4-methyl-2H-indazol-2-yl)-3-methylbutyl)benzamido)propanoic acid], with 57 nM.
Regarding `Cc1c(-c2ccc(C(F)(F)F)c(Cl)c2)ccc2nn(C(CC(C)C)c3ccc(C(=O)NCCC(=O)O)cc3)cc12` (stereo not shown) [Compound #149, 3-(4-(1-(5-(3-Chloro-4-(trifluoromethyl)phenyl)-4-methyl-2H-indazol-2-yl)-3-methylbutyl)benzamido)propanoic acid], the Ki is 70 nM.
Regarding `COc1c(-c2ccc(C(F)(F)F)cc2Cl)ccc2nn([C@@H](CC(C)C)c3ccc(C(=O)NCCC(=O)O)cc3)cc12` [Compound #150, 3-[[4-[(1S)-1-[5-[2-Chloro-4-(trifluoromethyl)phenyl]-4-methoxy-indazol-2-yl]-3-methyl-butyl]benzoyl]amino]propanoic acid], the Ki stood at 35 nM.
Then `Cc1c(-c2ccc(C(F)(F)F)cc2Cl)ccc2nn(C(CC(C)C)c3ccc(C(=O)NCCC(=O)O)nc3)cc12` (stereo not shown) [Compound #154, 3-(5-(1-(5-(2-Chloro-4-(trifluoromethyl)phenyl)-4-methyl-2H-indazol-2-yl)-3-methylbutyl)picolinamido)propanoic acid], with 13 nM.
With `Cc1cc(C(F)(F)F)ccc1-c1ccc2nn(C(CC(C)C)c3ccc(C(=O)NCCC(=O)O)nc3)cc2c1C` (stereo not shown) [Compound #155, 3-(5-(3-Methyl-1-(4-methyl-5-(2-methyl-4-(trifluoromethyl)phenyl)-2H-indazol-2-yl)butyl)picolinamido)propanoic acid], the Ki came to 9 nM.
Regarding `Cc1cc(C(F)(F)F)ccc1-c1ccc2nn([C@@H](CC(C)C)c3ccc(C(=O)NCCC(=O)O)cc3)cc2c1C` [Compound #156, 3-[[4-[(1S)-3-Methyl-1-[4-methyl-5-[2-methyl-4-(trifluoromethyl)phenyl]indazol-2-yl]butyl]benzoyl]amino]propanoic acid], the Ki worked out at 22 nM.
In the case of `Cc1cc2c(cnn2C(CC(C)C)c2ccc(C(=O)NCCC(=O)O)cc2)cc1-c1cc2cc(F)ccc2s1` (stereo not shown) [Compound #158, 3-[[4-[1-[5-(5-Fluorobenzothiophen-2-yl)-6-methyl-indazol-1-yl]-3-methyl-butyl]benzoyl]amino]propanoic acid], the Ki came to 190 nM.
For `CC(c1ccc(C(=O)NCCC(=O)O)cc1)n1cc2cc(-c3ccc(C(C)(C)C)cc3)ccc2n1` (stereo not shown) [Compound #161, 3-(4-(1-(5-(4-(tert-butyl)phenyl)-2H-indazol-2-yl)ethyl)benzamido) propanoic acid], the Ki was 3200 nM.
Take `O=C(O)CCNC(=O)c1ccc(C(CCC(F)(F)F)n2ncc3cc(-c4ccc(C(F)(F)F)cc4Cl)ccc32)cc1` (stereo not shown) [Compound #167, 3-[[4-[1-[5-[2-Chloro-4-(trifluoromethyl)phenyl]indazol-1-yl]-4,4,4-trifluorobutyl]benzoyl]amino]propanoic acid]: the Ki came to 270 nM.
The same measure for `Cc1cc(Cl)ccc1-c1ccc2nn(C(CC(C)C)c3ccc(C(=O)NCCC(=O)O)cc3)cc2c1` (stereo not shown) [Compound #168]: 191 nM; for `Cc1cc2c(cnn2C(CC(C)C)c2ccc(C(=O)NCCC(=O)O)cc2)cc1-c1cc2ccccc2s1` (stereo not shown) [Compound #174, 3-[[4-[1-[5-(Benzothiophen-2-yl)-6-methyl-indazol-1-yl]-3-methyl-butyl]benzoyl]amino]propanoic acid]: 190 nM; for `Cc1cc(C(F)(F)F)ccc1-c1cc2cn(C(CC(C)C)c3ccc(C(=O)NCCC(=O)O)nc3)nc2cc1Cl` (stereo not shown) [Compound #176, 3-[[5-[1-[6-Chloro-5-[2-methyl-4-(trifluoromethyl)phenyl]indazol-2-yl]-3-methyl-butyl]pyridine-2-carbonyl]amino]propanoic acid]: 50 nM.
Consider `Cc1ccc(-c2ccc3c(cnn3C(CC(C)C)c3ccc(C(=O)NCCC(=O)O)cc3)c2C)c(C)c1` (stereo not shown) [Compound #177, 3-(4-(1-(5-(2,4-Dimethylphenyl)-4-methyl-1H-indazol-1-yl)-3-methylbutyl)benzamido)propanoic acid], for which the Ki is 485 nM.

For orientation: Ki means the dissociation constant of the complex between target and ligand, obtained from inhibition or displacement.

The values above are taken from patent publication US10000473B2, “Indazole derivatives useful as glucagon receptor antagonists” (Janssen Pharmaceutica NV, priority 2016, dated 2018).
